# Measurements reported in patent publication US7547513B2, “Mutants of deoxycytidine kinase having extended enzymatic activity” (priority 2001, dated 2009).
# Several values for one entry are separate records, joined by “and”; a condition that tells them apart may be missing. Identical values can stand only once.
# What was measured:
# Type in all cases: cell-based
# [1] = test system: Escherichia coli β7334 Δdeo tdk cdd::Tn10 pSUTrc (dck allele: none); conditions: strain β7334, dck allele none; 18 h 37° C., MS medium + IPTG
# Description: (§1) The culture was then diluted 100 times in the same medium supplemented with IPTG and distributed on 96-well microplates in a final volume of 100 μl in a series of dilutions from to 2 to 2 nucleotide analogues. Each analogue was tested twice. After incubation for 18 hours at 37° C. with stirring, the MIC was determined as corresponding to the lowest analogue concentration for which no turbidity was detectable.
# (§2) The toxicity of nucleoside analogues, deviating either by the sugar or by the base, was evaluated in strains of genotype Δdeo tdk cdd expressing on a plasmid the different dckH alleles, wild-type allele, D133E, R104Q and double mutant.
# (§3) The minimum inhibitory concentrations, expressed in microM, were determined as indicated in the section Materials and Methods.
# [2] = test system: Escherichia coli β7338 Δdeo tdk cdd::Tn10 pSUDCK4 (dck:D133E-R104Q); conditions: strain β7338, dck allele D133E R104Q; 18 h 37° C., MS medium + IPTG
# Description: as §1, §2, §3
# [3] = test system: Escherichia coli β7348 Δdeo tdk cdd::Tn10 (dckH D133E R104Q, amkG T39A); assay: microbe, parasite or virus in culture; conditions: for minimum inhibitory concentration (MIC): strain β7348, dckH D133E R104Q, amkG T39A
# Description: as §1
# (§4) We jointly expressed, within the genetic context Δdeo tdk cdd each of the four alleles of dckH with each of the two wt and T39A alleles of amkG, and tested the toxicity of the different nucleoside analogues already tested previously (Table 4 below).
# as §3
# [4] = test system: Escherichia coli β7339 Δdeo tdk cdd::Tn10 (dckH none, amkG wt); assay: microbe, parasite or virus in culture; conditions: for minimum inhibitory concentration (MIC): strain β7339, dckH none, amkG wt
# Description: as §1, §4, §3
# [5] = test system: Escherichia coli β7340 Δdeo tdk cdd::Tn10 (dckH wt, amkG wt); assay: microbe, parasite or virus in culture; conditions: for minimum inhibitory concentration (MIC): strain β7340, dckH wt, amkG wt
# Description: as §1, §4, §3
# [6] = test system: Escherichia coli β7341 Δdeo tdk cdd::Tn10 (dckH D133E, amkG wt); assay: microbe, parasite or virus in culture; conditions: for minimum inhibitory concentration (MIC): strain β7341, dckH D133E, amkG wt
# Description: as §1, §4, §3
# [7] = test system: Escherichia coli β7346 Δdeo tdk cdd::Tn10 (dckH D133E, amkG T39A); assay: microbe, parasite or virus in culture; conditions: for minimum inhibitory concentration (MIC): strain β7346, dckH D133E, amkG T39A
# Description: as §1, §4, §3
# [8] = test system: Escherichia coli β7343 Δdeo tdk cdd::Tn10 (dckH D133E R104Q, amkG wt); assay: microbe, parasite or virus in culture; conditions: for minimum inhibitory concentration (MIC): strain β7343, dckH D133E R104Q, amkG wt
# Description: as §1, §4, §3
# [9] = test system: Escherichia coli β7344 Δdeo tdk cdd::Tn10 (dckH none, amkG T39A); assay: microbe, parasite or virus in culture; conditions: for minimum inhibitory concentration (MIC): strain β7344, dckH none, amkG T39A
# Description: as §1, §4, §3
# [10] = test system: Escherichia coli β7342 Δdeo tdk cdd::Tn10 (dckH R104Q, amkG wt); assay: microbe, parasite or virus in culture; conditions: for minimum inhibitory concentration (MIC): strain β7342, dckH R104Q, amkG wt
# Description: as §1, §4, §3
# [11] = test system: Escherichia coli β7345 Δdeo tdk cdd::Tn10 (dckH wt, amkG T39A); assay: microbe, parasite or virus in culture; conditions: for minimum inhibitory concentration (MIC): strain β7345, dckH wt, amkG T39A
# Description: as §1, §4, §3
# [12] = test system: Escherichia coli β7347 Δdeo tdk cdd::Tn10 (dckH R104Q, amkG T39A); assay: microbe, parasite or virus in culture; conditions: for minimum inhibitory concentration (MIC): strain β7347, dckH R104Q, amkG T39A
# Description: as §1, §4, §3
# [13] = test system: Escherichia coli β7336 Δdeo tdk cdd::Tn10 pSUDCK2 (dck:D133E); conditions: strain β7336, dck allele D133E; 18 h 37° C., MS medium + IPTG
# Description: The culture was then diluted 100 times in the same medium supplemented with IPTG and distributed on 96-well microplates in a final volume of 100 μl in a series of dilutions from to 2 to 2 nucleotide analogues. Each analogue was tested twice.
# as §2, §3
# [14] = Escherichia coli, read-out: minimum inhibitory concentration (MIC)
structure (smiles),measurement,setting,value
Nc1ccn([C@H]2CC[C@@H](CO)O2)c(=O)n1 [ddC],minimum inhibitory concentration (MIC),[1],"> (no toxicity could be detected at the highest analogue concentration, 1.28 mM)"
same,minimum inhibitory concentration (MIC),[2],"> (no toxicity could be detected at the highest analogue concentration, 1.28 mM)"
"O=c1[nH]cnc2c1ncn2[C@H]1C[C@H](O)[C@@H](CO)O1 [dI, 2′-deoxyinoside]",minimum inhibitory concentration (MIC),[1],"> (no toxicity could be detected at the highest analogue concentration, 1.28 mM)"
same,minimum inhibitory concentration (MIC),[2],320 µM
same,minimum inhibitory concentration (MIC),[3],1280 µM
same,minimum inhibitory concentration (MIC),[4],"> (no toxicity could be detected at the highest analogue concentration, 1280 microM)"
same,minimum inhibitory concentration (MIC),[5],"> (no toxicity could be detected at the highest analogue concentration, 1280 microM)"
same,minimum inhibitory concentration (MIC),[6],≦1.25 microM
same,minimum inhibitory concentration (MIC),[7],≦1.25 microM
same,minimum inhibitory concentration (MIC),[8],1280 µM
same,minimum inhibitory concentration (MIC),[9],"> (no toxicity could be detected at the highest analogue concentration, 1280 microM)"
same,minimum inhibitory concentration (MIC),[10],"> (no toxicity could be detected at the highest analogue concentration, 1280 microM)"
same,minimum inhibitory concentration (MIC),[11],"> (no toxicity could be detected at the highest analogue concentration, 1280 microM)"
same,minimum inhibitory concentration (MIC),[12],"> (no toxicity could be detected at the highest analogue concentration, 1280 microM)"
same,minimum inhibitory concentration (MIC),[13],1 µM and 1.25 µM
O=c1[nH]c(=O)n([C@H]2C[C@H](O)[C@@H](CO)O2)cc1Cl [5-chloro-dU],minimum inhibitory concentration (MIC),[1],"> (no toxicity could be detected at the highest analogue concentration, 1.28 mM)"
same,minimum inhibitory concentration (MIC),[2],"> (no toxicity could be detected at the highest analogue concentration, 1.28 mM)"
"NC(=O)c1cn([C@H]2C[C@H](O)[C@@H](CO)O2)cn1 [dY, 1-(2′-deoxyribofuranosyl)imidazole-4-carboxamide]",minimum inhibitory concentration (MIC),[1],"> (no toxicity could be detected at the highest analogue concentration, 1.28 mM)"
same,minimum inhibitory concentration (MIC),[2],"> (no toxicity could be detected at the highest analogue concentration, 1.28 mM)"
same,minimum inhibitory concentration (MIC),[3],"> (no toxicity could be detected at the highest analogue concentration, 1280 microM)"
same,minimum inhibitory concentration (MIC),[4],"> (no toxicity could be detected at the highest analogue concentration, 1280 microM)"
same,minimum inhibitory concentration (MIC),[5],"> (no toxicity could be detected at the highest analogue concentration, 1280 microM)"
same,minimum inhibitory concentration (MIC),[6],"> (no toxicity could be detected at the highest analogue concentration, 1280 microM)"
same,minimum inhibitory concentration (MIC),[7],1280 µM
same,minimum inhibitory concentration (MIC),[8],"> (no toxicity could be detected at the highest analogue concentration, 1280 microM)"
same,minimum inhibitory concentration (MIC),[9],"> (no toxicity could be detected at the highest analogue concentration, 1280 microM)"
same,minimum inhibitory concentration (MIC),[10],"> (no toxicity could be detected at the highest analogue concentration, 1280 microM)"
same,minimum inhibitory concentration (MIC),[11],"> (no toxicity could be detected at the highest analogue concentration, 1280 microM)"
same,minimum inhibitory concentration (MIC),[12],"> (no toxicity could be detected at the highest analogue concentration, 1280 microM)"
"Nc1nc(=O)n([C@H]2C[C@H](O)[C@@H](CO)O2)cc1Br [5-bromo-dC, 5-bromo-2-deoxycytidine]",minimum inhibitory concentration (MIC),[1],"> (no toxicity could be detected at the highest analogue concentration, 1.28 mM)"
same,minimum inhibitory concentration (MIC),[2],"> (no toxicity could be detected at the highest analogue concentration, 1.28 mM)"
O=c1[nH]c(=O)n([C@H]2C[C@H](O)[C@@H](CO)O2)cc1I [5-iodo-dU],minimum inhibitory concentration (MIC),[1],"> (no toxicity could be detected at the highest analogue concentration, 1.28 mM)"
same,minimum inhibitory concentration (MIC),[2],"> (no toxicity could be detected at the highest analogue concentration, 1.28 mM)"
O=c1ccn([C@H]2CC[C@@H](CO)O2)c(=O)[nH]1 [ddU],minimum inhibitory concentration (MIC),[1],"> (no toxicity could be detected at the highest analogue concentration, 1.28 mM)"
same,minimum inhibitory concentration (MIC),[2],"> (no toxicity could be detected at the highest analogue concentration, 1.28 mM)"
Cc1cn([C@H]2C[C@H](O)[C@@H](CN)O2)c(=O)[nH]c1=O [5′-amino-dT],minimum inhibitory concentration (MIC),[1],"> (no toxicity could be detected at the highest analogue concentration, 1.28 mM)"
same,minimum inhibitory concentration (MIC),[2],"> (no toxicity could be detected at the highest analogue concentration, 1.28 mM)"
"Nc1nc(=O)n([C@H]2C[C@H](O)[C@@H](CO)O2)cc1I [5-iodo-dC, 5-iodo-2′-deoxycytidine]",MIC,[3]; [14],≤ 1.25 µM
same,MIC,[4]; [14],> 1280 µM
same,MIC,[5]; [14],> 1280 µM
same,MIC,[6]; [14],≤ 1.25 µM
same,MIC,[7]; [14],≤ 1.25 µM
same,MIC,[8]; [14],≤ 1.25 µM
same,MIC,[9]; [14],> 1280 µM
same,MIC,[10]; [14],≤ 1.25 µM
same,MIC,[11]; [14],≤ 1.25 µM
same,MIC,[12]; [14],≤ 1.25 µM
Nc1nc2c(ncn2[C@@H]2C[C@H](O)[C@@H](CO)O2)c(=O)o1 [d-oxanosine],minimum inhibitory concentration (MIC),[1],"> (no toxicity could be detected at the highest analogue concentration, 1.28 mM)"
same,minimum inhibitory concentration (MIC),[2],"> (no toxicity could be detected at the highest analogue concentration, 1.28 mM)"
same,minimum inhibitory concentration (MIC),[13],80 µM
O=c1[nH]c(=O)n([C@H]2C[C@H](O)[C@@H](CO)O2)cc1CO [5-hm-dU],minimum inhibitory concentration (MIC),[1],"> (no toxicity could be detected at the highest analogue concentration, 1.28 mM)"
same,minimum inhibitory concentration (MIC),[2],"> (no toxicity could be detected at the highest analogue concentration, 1.28 mM)"
Cc1cn([C@H]2CC[C@@H](CO)O2)c(=O)[nH]c1=O [ddT],minimum inhibitory concentration (MIC),[1],"> (no toxicity could be detected at the highest analogue concentration, 1.28 mM)"
same,minimum inhibitory concentration (MIC),[2],"> (no toxicity could be detected at the highest analogue concentration, 1.28 mM)"
Cc1cn([C@H]2C[C@H](O)[C@@H](CO)O2)c(N)nc1=O [5-methyl-disoC],minimum inhibitory concentration (MIC),[1],"> (no toxicity could be detected at the highest analogue concentration, 1.28 mM)"
same,minimum inhibitory concentration (MIC),[2],"> (no toxicity could be detected at the highest analogue concentration, 1.28 mM)"
